MIC data for eight compounds are collected here from article PMC9130746, “In Vitro Activity of Peptide Antibiotics in Combination With Other Antimicrobials on Extensively Drug-Resistant Acinetobacter baumannii in the Planktonic and Biofilm Cell” (Frontiers in Pharmacology, 2022).

This assay has as its system extensively drug-resistant A. baumannii clinical isolates (planktonic cell). Description: microbe, parasite or virus in culture. The format is cell-based, Acinetobacter baumannii. The source says:
Nine XDRAB strains were isolated from clinical specimens such as the septum, urine, or respiratory lavage fluid of patients from the respiratory intensive care unit, intensive care unit, the cardiothoracic surgery department, and the neurology department at the First Affiliated Hospital of Chengdu Medical College during the period from 2018 to 2020 (Chengdu, Sichuan, China). In addition, A. baumannii ATCC 19606, Staphylococcus aureus ATCC 29213, and Escherichia coli ATCC 25922 were used as quality control strains in antimicrobial susceptibility testing (AST) and obtained from the American Type Culture Collection (ATCC, Manassas, VA, United States).
The minimum inhibitory concentrations (MICs) were determined by the broth microdilution method for the antibacterial agents and peptide antibiotics for A. baumannii based on the guidelines provided by the Clinical and Laboratory Standards Institute (CLSI) ([Humphries et al., 2021]). Briefly, bacterial cells were inoculated in Luria–Bertani agar medium at 37°C for 16–20 h, and then resuspended in saline (0.9% sodium chloride) to adjust the bacterial content to reach the 0.5 McFarland turbidity standard, followed by a 20-fold dilution. Antimicrobial solutions were prepared according to the CLSI ([Humphries et al., 2021]). Finally, 180 μl CAMHB, 10 µl corresponding antimicrobials, and 10 µl bacterial resuspension were added into 96-well plate (NEST TC, 701001, www.cell-nest.com). The value of OD600 was measured after incubating at 37°C for 16–20 h.

Where [1] appears, read: Acinetobacter baumannii, isolate AB1, planktonic, broth microdilution, CAMHB, 37°C 16–20 h, OD600, read-out: MIC.
The mark [2] stands for this setting: Acinetobacter baumannii, isolate AB2, planktonic, broth microdilution, CAMHB, 37°C 16–20 h, OD600, read-out: MIC.
The mark [3] stands for this setting: Acinetobacter baumannii, isolate AB3, planktonic, broth microdilution, CAMHB, 37°C 16–20 h, OD600, read-out: MIC.
[4] abbreviates: Acinetobacter baumannii, isolate AB4, planktonic, broth microdilution, CAMHB, 37°C 16–20 h, OD600, read-out: MIC.
Where [5] appears, read: Acinetobacter baumannii, isolate AB5, planktonic, broth microdilution, CAMHB, 37°C 16–20 h, OD600, read-out: MIC.
Where [6] appears, read: Acinetobacter baumannii, isolate AB6, planktonic, broth microdilution, CAMHB, 37°C 16–20 h, OD600, read-out: MIC.
Where [7] appears, read: Acinetobacter baumannii, isolate AB7, planktonic, broth microdilution, CAMHB, 37°C 16–20 h, OD600, read-out: MIC.
Where [8] appears, read: Acinetobacter baumannii, isolate AB8, planktonic, broth microdilution, CAMHB, 37°C 16–20 h, OD600, read-out: MIC.
The mark [9] stands for this setting: Acinetobacter baumannii, isolate AB9, planktonic, broth microdilution, CAMHB, 37°C 16–20 h, OD600, read-out: MIC.
[10] abbreviates: isolate AB1, planktonic, broth microdilution, CAMHB, 37°C 16–20 h, OD600.
Setting [11] is: isolate AB2, planktonic, broth microdilution, CAMHB, 37°C 16–20 h, OD600.
Where [12] appears, read: isolate AB3, planktonic, broth microdilution, CAMHB, 37°C 16–20 h, OD600.
The mark [13] stands for this setting: isolate AB4, planktonic, broth microdilution, CAMHB, 37°C 16–20 h, OD600.
[14] abbreviates: isolate AB5, planktonic, broth microdilution, CAMHB, 37°C 16–20 h, OD600.
[15] abbreviates: isolate AB6, planktonic, broth microdilution, CAMHB, 37°C 16–20 h, OD600.
Setting [16] is: isolate AB7, planktonic, broth microdilution, CAMHB, 37°C 16–20 h, OD600.
The mark [17] stands for this setting: isolate AB8, planktonic, broth microdilution, CAMHB, 37°C 16–20 h, OD600.

In brackets after ≈: the same amount, converted by molar mass. Like-named read-outs stand apart in the source and are kept apart here.

`CN(C)[C@@H]1C(O)=C(C(N)=O)C(=O)[C@@]2(O)C(O)=C3C(=O)c4c(O)cccc4[C@@](C)(O)[C@H]3C[C@@H]12` [Tetracycline, tetracycline]: the MIC is, setting by setting: under setting [1], > 1020 µg/mL; under setting [2], > 1020 µg/mL; under setting [3], > 1020 µg/mL; under setting [4], > 1020 µg/mL; under setting [5], > 1020 µg/mL; under setting [6], > 1020 µg/mL. Further, the MIC by setting is: under setting [7], > 1020 µg/mL; under setting [8], > 1020 µg/mL; under setting [9], > 1020 µg/mL.

For `NCC[C@H](O)C(=O)N[C@@H]1C[C@H](N)[C@@H](O[C@H]2O[C@H](CN)[C@@H](O)[C@H](O)[C@H]2O)[C@H](O)[C@H]1O[C@H]1O[C@H](CO)[C@@H](O)[C@H](N)[C@H]1O` [Amikacin, amikacin], the MIC reads like this: under setting [1], > 1020 µg/mL; under setting [2], > 1020 µg/mL; under setting [3], > 1020 µg/mL; under setting [4], > 1020 µg/mL; under setting [5], > 1020 µg/mL; under setting [6], > 1020 µg/mL. For the same compound, the MIC under setting [7] was > 1020 µg/mL, the MIC under setting [8] was > 1020 µg/mL and the MIC under setting [9] was > 1020 µg/mL.

On to `C[C@@H](O)[C@H]1C(=O)N2C(C(=O)O)=C(SCCN=CN)C[C@H]12` [Imipenem, imipenem], for which the MIC runs as follows: under setting [1], 64 µg/mL (≈ 214 µM); under setting [2], 64 µg/mL (≈ 214 µM); under setting [3], 64 µg/mL (≈ 214 µM); under setting [4], 64 µg/mL (≈ 214 µM); under setting [5], 64 µg/mL (≈ 214 µM); under setting [6], 64 µg/mL (≈ 214 µM). The MIC was 64 µg/mL (≈ 214 µM) under setting [7], 64 µg/mL (≈ 214 µM) under setting [8] and 64 µg/mL (≈ 214 µM) under setting [9].

Take `CC(C)(O/N=C(\C(=O)N[C@@H]1C(=O)N2C(C(=O)[O-])=C(C[n+]3ccccc3)CS[C@H]12)c1csc(N)n1)C(=O)O` [Ceftazidime, ceftazidime]: the MIC was 256 µg/mL (≈ 468 µM) (Acinetobacter baumannii); 256 µg/mL (≈ 468 µM) under setting [10]; 256 µg/mL (≈ 468 µM) under setting [11]; 256 µg/mL (≈ 468 µM) under setting [12]; 256 µg/mL (≈ 468 µM) under setting [13]; 256 µg/mL (≈ 468 µM) under setting [14]. This compound registered an MIC under setting [15] of 256 µg/mL (≈ 468 µM), an MIC under setting [16] of 256 µg/mL (≈ 468 µM) and an MIC under setting [17] of 256 µg/mL (≈ 468 µM).

With `C[C@H]1COc2c(N3CCN(C)CC3)c(F)cc3c(=O)c(C(=O)O)cn1c23` [Levofloxacin, levofloxacin], the MIC under setting [1] turned out to be 16 µg/mL (≈ 44.3 µM); the MIC under setting [2] amounted to 16 µg/mL (≈ 44.3 µM); the MIC under setting [3] worked out at 16 µg/mL (≈ 44.3 µM); the MIC under setting [4] is 8 µg/mL (≈ 22.1 µM); the MIC under setting [5] was 8 µg/mL (≈ 22.1 µM); the MIC under setting [6] worked out at 16 µg/mL (≈ 44.3 µM). The MIC runs as follows: under setting [7], 8 µg/mL (≈ 22.1 µM); under setting [8], 16 µg/mL (≈ 44.3 µM); under setting [9], 16 µg/mL (≈ 44.3 µM).

With `C[C@@H](O)[C@H]1C(=O)N2C(C(=O)O)=C(S[C@@H]3CN[C@H](C(=O)N(C)C)C3)[C@H](C)[C@H]12` [Meropenem, meropenem], the MIC under setting [1] is 32 µg/mL (≈ 83.4 µM); the MIC under setting [2] came out at 32 µg/mL (≈ 83.4 µM); the MIC under setting [3] was 32 µg/mL (≈ 83.4 µM); the MIC under setting [4] was 32 µg/mL (≈ 83.4 µM); the MIC under setting [5] was 32 µg/mL (≈ 83.4 µM); the MIC under setting [6] amounted to 32 µg/mL (≈ 83.4 µM). Further, the MIC by setting is: under setting [7], 32 µg/mL (≈ 83.4 µM); under setting [8], 32 µg/mL (≈ 83.4 µM); under setting [9], 32 µg/mL (≈ 83.4 µM).

For the compound `CN(C)c1ccc(O)c2c1C[C@H]1C[C@H]3[C@H](N(C)C)C(O)=C(C(N)=O)C(=O)[C@@]3(O)C(O)=C1C2=O` [Minocycline, minocycline], the MIC runs as follows: under setting [1], 16 µg/mL (≈ 35 µM); under setting [2], 16 µg/mL (≈ 35 µM); under setting [3], 16 µg/mL (≈ 35 µM); under setting [4], 16 µg/mL (≈ 35 µM); under setting [5], 16 µg/mL (≈ 35 µM); under setting [6], 16 µg/mL (≈ 35 µM). In addition, the MIC by setting is: under setting [7], 16 µg/mL (≈ 35 µM); under setting [8], 16 µg/mL (≈ 35 µM); under setting [9], 16 µg/mL (≈ 35 µM).

With `CO/N=C(\C(=O)N[C@@H]1C(=O)N2C(C(=O)O)=C(COC(C)=O)CS[C@H]12)c1csc(N)n1` [Cefotaxime, cefotaxime], the MIC runs as follows: (Acinetobacter baumannii) 256 µg/mL (≈ 562 µM); under setting [10], 256 µg/mL (≈ 562 µM); under setting [11], 256 µg/mL (≈ 562 µM); under setting [12], 256 µg/mL (≈ 562 µM); under setting [13], 256 µg/mL (≈ 562 µM); under setting [14], 256 µg/mL (≈ 562 µM). For the same compound, the MIC was found to be 256 µg/mL (≈ 562 µM) under setting [15], 256 µg/mL (≈ 562 µM) under setting [16] and 256 µg/mL (≈ 562 µM) under setting [17].
